Experimental data published in patent US11738021B2, “Composition and method for preventing, alleviating or treating cancer” (CKP Therapeutics, Inc., priority 2021, dated 2023).

Columns and labels:
[1] = system: YUMC-C1 cell line xenograft; type: in vivo; conditions: YUMC-C1 xenograft mice, oral, 13 times over 41 days, doses per Table 3
Experimental: (§1) 15 days after injection of each of the cell lines, when the tumor volume reached about 100 to 200 mm^3, mice having a tumor with the above volume were randomly grouped (n=10/group), and then each drug was administered to the mice 13 times for a total of 41 days under the conditions shown in Table 3 below. […] Here, nothing was administered to the control group.

[2] = system: YUMC-H2 cell line xenograft; conditions: YUMC-H2 xenograft mice, oral, 13 times over 41 days, doses per Table 3
Experimental: as §1

[3] = system: YUMC-P1 cell line xenograft; conditions: YUMC-P1 xenograft mice, oral, 13 times over 41 days, doses per Table 3
Experimental: as §1

YUMC-C1 cell line = conditions: drug alone at 200 μM, FIG. 2
Experimental: Each of the YUMC-C1, YUMC-H2 and YUMC-P1 cell lines of Example 1 was inoculated into 96-well plates at a density of 6×10^3 cells/well and then cultured overnight to a confluence of 90%. […] However, when 1-(2-fluorophenyl)-4,6-dimethyl-1H,2H,3H-pyrrolo[3,2-c]quinoline was used in combination with oxaliplatin or sorafenib, the treatment concentration of each of oxaliplatin and sorafenib was 30 μM. Thereafter, cell viability was measured using the MTT reagent. The absorbance was measured at 550 nm, and viable cells were counted using trypan blue staining.

YUMC-H2 cell line = test: MTT cell viability, anticancer drug-resistant YUMC-H2 cell line; type: cell-based, human; conditions: drug alone at 200 μM, FIG. 2
YUMC-P1 cell line = test: MTT cell viability, anticancer drug-resistant YUMC-P1 cell line; type: cell-based, human; conditions: drug alone at 200 μM, FIG. 2

Cc1nc2c(C)cccc2c2c1CCN2c1ccccc1F [Candidate 19]
changes in mouse body weight (toxicity) ([1]; FIG. 5): no changes | changes in mouse body weight (toxicity) ([2]; FIG. 5): no changes | changes in mouse body weight (toxicity) ([3]; FIG. 5): no changes

O=C1[O][Pt]2([NH][C@@H]3CCCC[C@H]3[NH]2)[O]C1=O [oxaliplatin]
tumor volume ([1]; vs control, FIG. 3): did not significantly decrease | tumor weight ([1]; vs control, FIG. 4): did not significantly decrease | cells survived (YUMC-C1 cell line): more than 80%

CNC(=O)c1cc(Oc2ccc(NC(=O)Nc3ccc(Cl)c(C(F)(F)F)c3)cc2)ccn1 [sorafenib]
cells survived (YUMC-H2 cell line): more than 80% | cells survived (YUMC-P1 cell line): more than 80% | tumor volume ([2]; FIG. 3): no significant changes | tumor weight ([2]; FIG. 4): no significant changes | tumor volume ([3]; FIG. 3): no significant changes | tumor weight ([3]; FIG. 4): no significant changes
